Laboratory results: patent US12606585B2, “Fluorinated hexoses” (Stichting Radboud Universiteit, priority 2020, dated 2026)
Like-named read-outs stand apart in the source and are kept apart here.

Assays:
Format in all cases: cell-based
THP-1 cells [1] = test: Lectin staining for fucose expression inhibition, THP-1 cells; details: 3 days, 0-512 μM compound, flow cytometry
Method: (§1) THP-1 cells (TIB-202, ATCC) and Jurkat cells (TIB-152, ATCC) were cultured in RPMI-1640 medium containing 2 mM Glutamine and 25 mM HEPES (Gibco™, Life Technologies), supplemented with 10% v/v heat-inactivated fetal bovine serum (FBS) (Gibco™, Life Technologies) and 1× antibiotic-antimycotic solution (100 units/mL of penicillin, 100 μg/mL of streptomycin, and 0.25 μg/mL Fungizone) (Gibco™, Life Technologies) and passaged every 3-4 day by seeding a fraction of 0.5-2 min cells of the culture per 10 ml medium. EL-4 cells (TIB-39, ATCC) were cultured in DMEM medium (Gibco™, Life Technologies), supplemented with 10% v/v heat-inactivated fetal bovine serum (FBS) (Gibco™, Life Technologies), 1× antibiotic-antimycotic solution (100 units/mL of penicillin, 100 μg/mL of streptomycin, and 0.25 μg/mL Fungizone) (Gibco™, Life Technologies) and 2 mM Glutamine (Gibco™, Life Technologies) and passaged every 2-4 days by seeding a fraction of 0.5-1 min cells of the culture per 10 ml medium. For passaging a T75 flask (Corning), medium was removed and the monolayer was washed with 10 ml PBS pH 7.2 without CaCl2) and MgCl2 (Gibco™, Life Technologies) before adding 3.5 ml 0.05% trypsin/EDTA solution (Gibco™ 5 Life Technologies) in PBS. Cells were incubated at rt for 30-45 s after which the trypsin/EDTA-solution was removed. Cells were incubated for an additional 2 min at 37° C., 5.0% CO2 and resuspended in cell culture medium. Cells were then seeded at ˜40.000 cells/cm^2 in new culture flasks. All cells were cultured at 37° C., 5% CO2 in a humidified incubator.
(§2) Protocol below was repeated until n>=3 for each compounds using cells at different passage numbers. Cells were cultured in medium containing different concentrations of unnatural sugar derivatives on either 24-wells plates (adherent cell lines; 80,000 cells per well) (Corning) or 96-wells plates (suspension cell lines; 13,000-20,000 cells per well) (Thermo Scientific). DMSO, at same dilution as the unnatural sugar derivative stock solutions, was used as a positive control for lectin staining; P-Fuc2F was used for all concentrations as negative control. Cells were incubated for three days at 37° C. and 5% CO2 in a humidified incubator. Cells were harvested and washed with 100 μl 1×CF-blocking buffer (Vector Laboratories Inc.) containing 1 mM CaCl2) and 1 mM MgCl2. The cells were then resuspended in 50 μl 0.5 μg/ml of 0.5 ng/ml biotinylated lectin in 1× carbo-free blocking buffer and incubated at 4-8° C. for 45-60 min. Cells were washed with 3×100 μl PBA (PBS containing 1% v/v FBS and 0.1% w/w sodium azide), incubated with 40 μl 1 μg/ml Streptavidin-phycoerythrin conjugate (Invitrogen, eBioscience) in PBA for 10-15 min at 4-8° C. Cells were then washed again with 3×100 μl PBA, resuspended in PBA and fluorescence was measured with a flow cytometer (Beckman & Dickinson FACS-Calibur). Each replicate for each condition with >10,000 gated events. Data was processed using FlowJo (FlowJo LLC). Percentage of lectin binding was obtained by normalizing the MFI values to the MFI values of the respective DMSO control.
(§3) Three cell lines (THP-1, Jurkat, EL4) were cultured for 3 days with 0-512 μM compound. The cells were stained with two fucose specific lectins (AAL & AOL) and analysed by flow cytometry, presented as mean percentage lectin binding normalized to control (n=3).

Jurkat cells = test: Lectin staining for fucose expression inhibition, Jurkat cells; details: 3 days, 0-512 μM compound, flow cytometry
Method: as §1, §2, §3

THP-1 cells [2] = test: Onset and recovery of inhibition; details: for effect on lectin binding (FIG. 5): AAL or AOL lectin; for inhibition at 100 µM: Homo sapiens, 72 h, read-out: inhibition of fucosylation after 3 days
Method: Cells were cultured in medium containing different concentrations of unnatural sugar derivatives on 96-wells plates (suspension cell lines; 13,000-20,000 cells per well) (Thermo Scientific). DMSO, at same dilution as the unnatural sugar derivative stock solutions, was used as a positive control for lectin staining; P-Fuc2F was used for all concentrations as negative control. Cells were incubated for eight days at 37° C. and 5% CO2 in a humidified incubator. Medium was changed after three and six days of incubation with cell culture medium without unnatural sugar derivatives. Every day cells were harvested and washed with 100 μl 1× CF-blocking buffer (Vector Laboratories Inc.) containing 1 mM CaCl2) and 1 mM MgCl2. The cells were then resuspended in 50 μl 0.5 μg/ml of either 0.5 ng/ml biotinylated AAL, AOL, SNA, MAL-II, WGA, LCA, PSA, PNA, PHA-L or GSL-1 lectin in 1× carbo-free blocking buffer or with 50 μl of non-supplemented 1× carbo-free blocking buffer and incubated at 4-8° C. for 45-60 min. Cells were washed with 3×100 μl PBA (PBS containing 1% v/v FBS and 0.1% w/w sodium azide), incubated with 40 μl 1 μg/ml Streptavidin-phycoerythrin conjugate (Invitrogen, eBioscience) in PBA for 10-15 min at 4-8° C. Cells were then washed again with 3×100 μl PBA, resuspended in PBA and fluorescence was measured with a flow cytometer (Beckman & Dickinson FACS-Calibur). Each replicate for each condition with >10,000 gated events. Data was processed using FlowJo (FlowJo LLC). Percentage of lectin binding was obtained by normalizing the MFI values to the MFI values of the respective DMSO control.
The onset of inhibition and duration for recovery was evaluated on THP-1 cells with 100 and 10 μM compound using the AAL lectin (FIG. 5). At 100 μM concentration compounds 9 and 10 inhibit fucosylation after 1 day and to over 50% after 3 days. Fucosylation was fully recovered to normal 5 levels on day 6. […] Similar results were obtained using the AOL lectin.

EL4 cells = test: Lectin staining for fucose expression inhibition, EL4 cells; details: 3 days, 0-512 μM compound, flow cytometry
Method: as §1, §2, §3

THP-1 cells [3] = test: Lectin specificity: total cell surface glycosylation with additional lectins; details: 100 μM and 10 μM, three days; for LCA and PSA lectin binding: lectins restricted to α1,6-linked core fucosylation
Method: Protocol below was repeated until n>=3 for each compounds using cells at different passage numbers. Culture medium was prepared in 96-wells plates (Thermo Scientific). For every unnatural sugar derivative, 11 wells containing 100 μM of unnatural sugar derivatives and 11 wells containing 10 μM of the unnatural sugar derivatives were prepared. DMSO, at same dilution as the tested probes, was used as a positive control for lectin staining. THP-1 Cells were cultured in the plates (20,000 cells per well) and the cells were incubated for three days at 37° C. and 5% CO2. Cells were harvested and washed with 100 μl 1×CF-blocking buffer (Vector Laboratories Inc.) containing 1 mM CaCl2) and 1 mM MgCl2. The cells were then resuspended in 50 μl 0.5 μg/ml of either 0.5 ng/ml biotinylated AAL, AOL, SNA, MAL-II, WGA, LCA, PSA, PNA, PHA-L or GSL-1 lectin in 1× carbo-free blocking buffer or with 50 μl of non-supplemented 1× carbo-free blocking buffer and incubated at 4-8° C. for 45-60 min. Cells were washed with 3×100 μl PBA (PBS containing 1% v/v FBS and 0.1% w/w sodium azide), incubated with 40 μl 1 μg/ml Streptavidin-phycoerythrin conjugate (Invitrogen, eBioscience) in PBA for 10-15 min at 4-8° C. Cells were then washed again with 3×100 μl PBA, resuspended in PBA and fluorescence was measured with a flow cytometer (Beckman & Dickinson FACS-Calibur). Each replicate for each condition with >10,000 gated events. Data was processed using FlowJo (FlowJo LLC). Percentage of lectin binding was obtained by normalizing the MFI values to the MFI values of the respective DMSO control.
Compounds 9 & 10 are mannose-1-phosphate derivatives, so other glycosylation pathways such as mannosylation could be imagined to be affected. Having established the ability to inhibit cellular fucosylation with AAL and AOL lectins, the effect on total cell surface glycosylation was evaluated using additional lectins (FIG. 4A and FIG. 4B). N-glycans consist of a biantennary mannose containing backbone, recognized by WGA, and can be branched recognized by L-Pha. These branches can be terminated with galactose, recognized by PNA, or α2,6- and α2,3-linked sialic acids recognized by SNA and MAL-II, respectively. […] The decrease in binding for these lectins can thus be attributed to defucosylation as confirmed by a decrease in AAL and AOL binding and no effect on WGA binding.

[4] = Homo sapiens, 72 h, AAL lectin, n=3, read-out: EC50 for fucose expression inhibition, THP-1 AAL
[5] = Homo sapiens, 72 h, AOL lectin, n=3, read-out: EC50 for fucose expression inhibition, THP-1 AOL
[6] = Homo sapiens, 72 h, AAL lectin, n=3, read-out: EC50 for fucose expression inhibition, Jurkat AAL
[7] = Homo sapiens, 72 h, AOL lectin, n=3, read-out: EC50 for fucose expression inhibition, Jurkat AOL
[8] = Mus musculus, 72 h, AAL lectin, n=3, read-out: EC50 for fucose expression inhibition, EL4 AAL
[9] = Mus musculus, 72 h, AOL lectin, n=3, read-out: EC50 for fucose expression inhibition, EL4 AOL

Compound	EC50 (THP-1 cells [1]; [4]) [µM]	EC50 (THP-1 cells [1]; [5]) [µM]	EC50 (Jurkat cells; [6]) [µM]	EC50 (Jurkat cells; [7]) [µM]	EC50 (EL4 cells; [8]) [µM]	EC50 (EL4 cells; [9]) [µM]	EC50 (THP-1 cells [1]; AAL lectin, n=3, read-out: EC50 for fucose expression inhibition, THP-1 AAL) [µM]	EC50 (THP-1 cells [1]; AOL lectin, n=3, read-out: EC50 for fucose expression inhibition, THP-1 AOL) [µM]	EC50 (Jurkat cells; AAL lectin, n=3, read-out: EC50 for fucose expression inhibition, Jurkat AAL) [µM]	EC50 (Jurkat cells; AOL lectin, n=3, read-out: EC50 for fucose expression inhibition, Jurkat AOL) [µM]	EC50 (EL4 cells; AAL lectin, n=3, read-out: EC50 for fucose expression inhibition, EL4 AAL) [µM]	EC50 (EL4 cells; AOL lectin, n=3, read-out: EC50 for fucose expression inhibition, EL4 AOL) [µM]	effect on lectin binding (FIG. 5) (THP-1 cells [2]; 100 μM)	effect on binding of WGA, L-Pha, PNA, SNA and MAL-II lectins (THP-1 cells [3])	LCA and PSA lectin binding (THP-1 cells [3])	onset of fucosylation inhibition (THP-1 cells [2]; 100 μM, AAL lectin) [days]	inhibition at 100 µM (THP-1 cells [2]; 100 μM, AAL lectin) [%]	inhibition of fucosylation at 10 μM (THP-1 cells [2]; 10 μM, AAL lectin)	effect on lectin binding (FIG. 5) (THP-1 cells [2]; 10 μM)
CC(=O)OCC1O[C@H](OP(=O)(OCCSC(C)=O)OCCSC(C)=O)C(OC(C)=O)C(OC(C)=O)[C@@H]1OC(C)=O (stereo partly drawn) [P-D-Man-1P (6), Di-(S-acetyl-2-thioethyl)-(2,3,4,6-tetra-O-acetyl-α-D-mannopyranoside) phosphate]	> 500	> 500	> 500	> 500	> 500	> 500							no effect						
CC(=O)OC1C(OC(C)=O)[C@H](OC(C)=O)C(CF)O[C@@H]1OP(=O)(OCCSC(C)=O)OCCSC(C)=O (stereo partly drawn) [P-D-Rha6F-1P (8), Di-(S-acetyl-2-thioethyl)-(2,3,4-tri-O-acetyl-6-fluoro-α-D-rhamnopyranoside) phosphate]	267	84.4	174	345	> 500	> 500													
CC(=O)OC1C(OC(C)=O)[C@H](OC(C)=O)C(C)O[C@@H]1OP(=O)(OCCSC(C)=O)OCCSC(C)=O (stereo partly drawn) [P-D-Rha-1P (7), Di-(S-acetyl-2-thioethyl)-(2,3,4-tri-O-acetyl-α-D-rhamnopyranoside) phosphate]	> 500	137	> 500	153	> 500	> 500													
CC(=O)OC1O[C@@H](C)[C@@H](OC(C)=O)[C@@H](OC(C)=O)[C@@H]1F (some centres unmarked) [P-Fuc2Feq, reference compound]							44.9	30.7	115	121	> 500	> 500						no inhibition	no longer discernible

The remaining compounds from weak to strong by EC50 (THP-1 cells [1]; [4]), led by results:

EC50 (THP-1 cells [1]; [4]) [µM]	EC50 (THP-1 cells [1]; [5]) [µM]	EC50 (Jurkat cells; [6]) [µM]	EC50 (Jurkat cells; [7]) [µM]	EC50 (EL4 cells; [8]) [µM]	EC50 (EL4 cells; [9]) [µM]	EC50 (THP-1 cells [1]; AAL lectin, n=3, read-out: EC50 for fucose expression inhibition, THP-1 AAL) [µM]	EC50 (THP-1 cells [1]; AOL lectin, n=3, read-out: EC50 for fucose expression inhibition, THP-1 AOL) [µM]	EC50 (Jurkat cells; AAL lectin, n=3, read-out: EC50 for fucose expression inhibition, Jurkat AAL) [µM]	EC50 (Jurkat cells; AOL lectin, n=3, read-out: EC50 for fucose expression inhibition, Jurkat AOL) [µM]	EC50 (EL4 cells; AAL lectin, n=3, read-out: EC50 for fucose expression inhibition, EL4 AAL) [µM]	EC50 (EL4 cells; AOL lectin, n=3, read-out: EC50 for fucose expression inhibition, EL4 AOL) [µM]	Compound	effect on lectin binding (FIG. 5) (THP-1 cells [2]; 100 μM)	effect on binding of WGA, L-Pha, PNA, SNA and MAL-II lectins (THP-1 cells [3])	LCA and PSA lectin binding (THP-1 cells [3])	onset of fucosylation inhibition (THP-1 cells [2]; 100 μM, AAL lectin) [days]	inhibition at 100 µM (THP-1 cells [2]; 100 μM, AAL lectin) [%]	inhibition of fucosylation at 10 μM (THP-1 cells [2]; 10 μM, AAL lectin)	effect on lectin binding (FIG. 5) (THP-1 cells [2]; 10 μM)
1.97	5.26	5.93	4.1	14.2	38.2							CC(=O)OC1C(OC(C)=O)[C@H](OC(C)=O)C(C(F)F)O[C@@H]1OP(=O)(OCCSC(C)=O)OCCSC(C)=O (stereo partly drawn) [P-D-Rha6F2-1P (9), Di-(S-acetyl-2-thioethyl)-(2,3,4-tri-O-acetyl-6,6-difluoro-α-D-rhamnopyranoside) phosphate]		No significant effect	decreased binding	1	> 50		
0.608	0.454	27.7	12.8	> 500	> 500							CC(=O)OC1C(OC(C)=O)[C@H](OC(C)=O)C(C(F)(F)F)O[C@@H]1OP(=O)(OCCSC(C)=O)OCCSC(C)=O (stereo partly drawn) [P-D-Rha6F3-1P (10), Di-(S-acetyl-2-thioethyl)-(2,3,4-tri-O-acetyl-6,6,6-trifluoro-α-D-mannopyranoside) phosphate]		No significant effect	decreased binding	1	> 50		
